{"source": "patent US20090275503A1", "about": "“DIASTEREOMERIC PEPTIDES FOR MODULATING T CELL IMMUNITY” (Yeda Research and Developent Co., Ltd. at the Weizman …, priority 2005, published 2009)", "key": {"rat TCR": {"test_system": "rat TCR", "assay": "Co-immunoprecipitation of fluorescence-labeled peptides with TCR molecules", "type": "binding", "conditions": "Rho-labeled peptides, activated A2b T cells", "method": "Activated A2b T cells (2×10^6) were cultured for 1 hr at 37° C. in the presence of CP or 2D-CP (25 μg/ml), or 2G-CP, and lysed for 15 min on ice in 0.1 ml lysis buffer (Adachi et al., 1996). Insoluble material was removed by centrifugation at 10.000 g for 10 min at 4° C. The lysate was then incubated overnight with Protein A-plus Agarose beads (Santa Cruz Biotechnology Inc., Santa Cruz, Calif., USA) bound to antibodies to the rat TCR or MHC class 1. The antibodies reactive against the rat TCR (clone R73) or HSP60 (clone LKI) were purified from the respective hybridomas at our lab; antibodies to rat CD28, actin and the rat MHC class 1 were purchased from Serotec (Oxford, UK). After an overnight incubation at 4° C., the beads were washed with lysis buffer, boiled for 10 minutes and the protein supernatant run in a 4-20% SDS-PAGE. The presence of co-immunoprecipitated peptide was detected by the Typhoon 9400 variable mode imager.\nNext, co-immunoprecipitation experiments were performed. The affinity of the TCR/CP, the TCR/2D-CP and TCR/2G-CP interactions were compared by performing a series of co-precipitation experiments using different concentrations of Rho-labeled CP, 2D-CP and 2G-CP peptides."}, "LNC from Mt primed rats": {"test_system": "LNC from Mt primed rats", "assay": "T-cell proliferation of LNC from Mt-immunized rats activated with PPD or Mt176-90 (Part A)", "type": "cell-based, rat"}, "Lewis rats [1]": {"test_system": "Lewis rats", "assay": "Adjuvant arthritis (AA) in Lewis rats (Part A)", "type": "in vivo, rat", "method": "To test the effect of CP on T-cell activation in vivo, the experimental T-cell mediated autoimmune disease adjuvant arthritis (AA) was used. AA was induced by injecting 50 μl of Mt suspended in IFA (10 mg/ml) at the base of the tail. At the time of AA induction, each rat also received 100 μg of all-L CP, 2D-CP or 2G CP control peptide (or PBS) dissolved in 50 μl of IFA and mixed with Mt/IFA used to induce AA. The day of AA induction was designated as day 0. Disease severity was assessed by direct observation of all 4 limbs in each animal. A relative score between 0 and 4 was assigned to each limb, based on the degree of joint inflammation, redness and deformity; thus the maximum possible score for an individual animal was 16 (Quintana et al., 2002). The mean AA score (±SEM) is shown for each experimental group. Arthritis was also quantified by measuring hind limb diameter with a caliper. Measurements were taken on the day of the induction of AA and 26 days later (at the peak of AA); the results are presented as the mean±SEM of the difference between the two values for all the animals in each group. The person who scored the disease was blinded to the identity of the groups.\nNext, the contribution of the secondary structure and the side-chains to the inhibitory effects of CP on T cell activation In vivo was analyzed, using the experimental autoimmune disease Adjuvant Arthritis (AA). Immunization of Lewis rats with Mt triggers AA, an autoimmune disease driven by Mt-specific T cells that cross-react with self-antigen (Holoshitz et al., 1984; Holoshitz et al., 1983). PPD and Mt176-90 are targeted by the arthritogenic T-cell response (Anderton et al., 1994); indeed immunomodulatory therapies that inhibit the progression of arthritis have been associated with a decreased T cell response to PPD and Mt176-90 and with a diminished delayed type hypersensitivity (DTH) response to PPD (van Eden et al., 1985)."}, "Lewis rats [2]": {"test_system": "Lewis rats", "assay": "Delayed type hypersensitivity to PPD in AA rats (Part A)", "type": "in vivo, rat", "conditions": "16 days after AA induction, ear thickness 48 hr after PPD", "method": "Twenty μl of PPD (0.5 mg/ml in PBS) were injected intradermally into the pinna of the right ear of each rat on day 16 after AA induction; 20 μl of sterile PBS were injected in the left ear as control. The thickness of the ear was measured 48 hr later using a vernier caliper and expressed as the difference between the right and the left ear (Quintana et al., 2005)."}, "BALB/c mice": {"test_system": "BALB/c mice", "assay": "Delayed type hypersensitivity to oxazalone in mice", "type": "in vivo, mouse", "method": "Groups of 5 female inbred BALB/c mice (The Jackson Laboratory) were sensitized on the shaved abdominal skin with 100 μl of 2% Oxazalone dissolved in acetone/olive oil [4:1 (vol/vol)] applied topically. DTH sensitivity was elicited 5 days later by challenging the mice with 20 μl of 0.5% Oxazalone in acetone/olive oil, 10 μl administered topically to each side of the ear. A constant area of the ear was measured immediately before challenge and 24 h after challenge with a Mitutoyo engineer's micrometer. The individual measuring ear swelling was unaware of the identity of the groups of mice. The DTH reaction is presented as the increment of ear swelling after challenge expressed as the mean±SEM in units of 10-2 mm. One hour after the challenge the mice's ears were treated topically with either all-L CP or with 2D-CP, both dissolved in 40 μl DMSO. The activity of the peptide treatments was compared to treatment with DMSO alone for “untreated mice” and Dexamethasone (100 μg/ml in saline) as a positive control.\nTo test whether TCR trans-membrane peptides could inhibit the elicitation of existing DTH reactivity, groups of naïve BALB/c mice were sensitized to 2% oxazalone. Five days later, the mice were challenged with 0.5% oxazalone administered to the ear. An hour after the challenge, the mice were treated with Dimethylsulfoxide (DMSO), all-L CP 150 μg (6 mg/kg) in DMSO, 2D-CP 150 μg (6 mg/kg) in DMSO, or dexamethasone, applied topically. On the following day, ear thickness was measured the swelling of DMSO treated mice (0.33±0.01 mm) was compared to that of mice treated with all-L CP (0.30±0.01 mm), 2D-CP (0.27±0.01 mm) and Dexamethasone (0.15±0.02 mm). […] Thus, 2D-CP can inhibit a T-cell mediated immune reaction in subjects already sensitized to the antigen."}, "target cells": {"test_system": "target cells", "assay": "Cytotoxic effect on the target cells (Part A)", "conditions": "incubated with the target cells"}}, "note": "Non-standard residues stand in square brackets, D forms with d. No end group written: not given here."}
{"sequence": "GLRILLLKV [2D-CP] (GL[dR]ILLL[dK]V-NH2; also: rhodamine label, position not given here)", "values": [{"measurement": "Co-precipitation with the TCR", "setting": "rat TCR", "result": "can be co-precipitated with the TCR"}, {"measurement": "Inhibition of T-cell proliferation to PPD and to Mt176-90", "setting": "LNC from Mt primed rats; LNC, 72 hr, 3H-thymidine incorporation", "result": "inhibited T-cell proliferation to PPD and to Mt176-90 in a dose-dependent manner"}, {"measurement": "Inhibition of T-cell proliferation compared with all-L CP", "setting": "LNC from Mt primed rats; at lower concentrations, p<0.02 (FIG. 3B)", "result": "somewhat greater"}, {"measurement": "Mean maximum AA score", "setting": "Lewis rats [1]; 100 μg peptide per rat at AA induction, maximum possible score 16", "result": "6.6±0.7"}, {"measurement": "Effect on adjuvant arthritis (clinical score and paw swelling)", "setting": "Lewis rats [1]; 100 μg peptide per rat with Mt at the time of AA induction", "result": "significantly milder arthritis"}, {"measurement": "Further decrease in the AA score", "setting": "Lewis rats [1]; dose increased to 900 μg per rat", "result": 25, "unit": "%"}, {"measurement": "Improvement in paw swelling", "setting": "Lewis rats [1]; dose increased to 900 μg per rat, day 26", "result": 50, "unit": "%"}, {"measurement": "Reduction in the DTH response to PPD", "setting": "Lewis rats [2]", "result": 51, "unit": "%"}, {"measurement": "Reduction in ear swelling compared with all-L CP", "setting": "BALB/c mice; 150 μg (6 mg/kg) topical in DMSO", "result": "twice the reduction"}, {"measurement": "Ear swelling", "setting": "BALB/c mice; topical treatment 1 hr after oxazalone challenge, peptides 150 μg (6 mg/kg) in DMSO, measured following day", "result": "0.27±0.01", "unit": "mm"}, {"measurement": "Cytotoxic effect", "setting": "target cells", "result": "None of the peptides (all-L CP, 2D-CP or 2G CP) had a cytotoxic effect"}]}
